Measurements: patent US8097615B2, “Neurofibrillary labels” (Wista Laboratories Ltd., priority 2001, dated 2012)

Columns and labels:
[1] = PET after injection; cases with clinical and neuroradiological diagnosis of Alzheimer's disease; cited from earlier work
[2] = target: T1, synthetic beta-amyloid fibrils (Homo sapiens, UniProt P05067); details: in vitro; cited from earlier work
T1 construct: host or cells: synthetic peptide

[3] = tested on: PHFs; test: Morphological studies of PHFs in the presence of phenothiazines (electron microscopy)
[4] = tested on: tangle fragments; test: Competitive binding assay: displacement of primulin fluorescence from tangle fragments (ifI); parameters: species or system human; details: fluorescence end point
Method: IfI material was homogenised in a 0.2 ml glass homogeniser in PBS. To the suspension, test compounds were added to final concentrations ranging from 0.1% to 0.00001%. […] The suspensions were transferred to a glass slide, and examined by fluorescence microscopy across a range of fluorescence filter blocks, covering excitation and emission wavelengths between 380 nm and 570 nm. The end point sought in these observations was displacement of typical primulin fluorescence from tangle fragments.

[5] = tested on: tau-tau binding; test: Solid-phase tau-tau binding assay, tau Preparation 1 (WO96/30766); assay type: biochemical, human
Source text: This point was further examined by studying the potency of typical aggregated tau ligands as tau-aggregation inhibitors. It has been shown previously that tau aggregation inhibitors (e.g. diaminophenothiazines) can be identified on the basis of inhibition of tau-tau binding in a solid-phase assay (WO 96/30766). […] Thus, although these compounds are potent ligands for tau within the PHF-core, they are at most weak inhibitors at the site required for inhibition of tau-tau binding.
Large-scale purification (1 liter bacterial culture) of tau fragments was carried out as described by Goedert and Jakes (1990, EMBO J., 9, 4225-4230), with minor modifications. Cells were disrupted by rapid freezing of the cell pellet in liquid nitrogen. The pellets were then suspended in buffer containing 50 mM PIPES, 1 mM dithiothreitol (DTT) (pH 6.8). The thermostable proteins in the supernatant were dialysed against PIPES/DTT, then applied to a column containing phosphocellulose equilibrated in the same buffer. […] Fractions were analysed by SDS-PAGE and both Coomassie staining and immunoblotting. […] Protein concentrations were measured by the Lowry method (Harrington C R (1990), “Lowry protein assay containing sodium dodecyl sulphate in microtitre plates for protein determinations on fractions from brain tissue”, Analytical Biochemistry 186: 285-287).

[6] = target: T2, tau-tau binding (Homo sapiens, UniProt P10636); test: Solid-phase tau-tau binding assay (dGA solid phase, dGAE liquid phase), tau Preparation 2; assay type: biochemical; details: Preparation 2
T2 construct: a truncated tau protein corresponding to the core fragment and terminating at Ala390-dGA; dGAE which terminates at Glu-391; made in house; host or cells: E. coli BL21 (DE3), pRK172; DE52 flow-through, P11 phosphocellulose, PEG concentration, no heat step (Preparation 2)
Method: Preparation 2 differs from Preparation 1 above in the following respects: (1) The concentration of cells at the sonication stage is increased by 5-fold. (2) A batchwise adsorption of non-tau proteins to DE52 is included. (3) The proteins are not subjected to heat treatment. (4) The final step involves concentration using polyethylene glycol.
Escherichia coli is grown in 2×TY medium (Oxoid) supplemented with ampicillin (50 micrograms per ml) to late-logarithmic phase. Cells from 5 liters of culture are harvested by centrifugation and the cell pellets frozen rapidly over liquid nitrogen. The pellets are taken up with 50 mM PIPES (pH 6.8) containing 1 mM EDTA, 1 mM dithiothreitol and 1 mM phenylmethylsulphonylfluoride (PMSF) and bacteria lysed by sonication (2×3 min) at 4 C. The mixture is centrifuged at 10,000 rpm for 20 min. The supernatant is rotated with 1 gram of Whatman DE52 for 3 hr at 4 C. The mixture is separated on a column and the flow-through material that fails to bind to DE52 is incubated for 3 hr at 4 C, with rotation, with 0.4 g of Whatman P11 (freshly regenerated according to manufacturer's recommendations). The column is washed with column buffer (50 mM PIPES, pH 6.8 containing 1 mM EGTA, 5 mM EDTA, 0.2 mM MgCl2, 5 mM β-mercaptoethanol and 1 mM PMSF). Tau protein is eluted stepwise with a 0.1 to 1 M gradient of KCl in column buffer. Fractions containing tau (determined by immunoassay) are pooled and dialysed against 80 mM PIPES (pH6.8) containing 1 mM EGTA, 1 mM MgCl2 and 5 mM β-mercatoethanol, using dialysis tubing with a molecular weight cut-off of 1,000. The dialysate is concentrated by applying polyethylene glycol 8000 to the outside of the sac for 2-3 hr. The final concentration of tau ranged from 3 to 10 mg per ml.
When the proteins dGA and dGAE were prepared as indicated above (“Preparation 2”), the properties of the tau-tau binding assay were altered relative to the properties obtained using the preparative method described in WO96/30766 (“Preparation 1”).
The assay is performed using 96 well PVC plates (Falcon Cat. No. 353912 are used), and the following steps:
1. 50 μl dGA (˜10 μg/ml) in carbonate buffer, incubate 1 h at 37° C.
(Carbonate buffer: 50 mM carbonate bicarbonate, pH 9.6 (Na2CO3 1.59 g/l, NaHCO3 2.93 g/l))
2. Wash plate in 0.05% Tween-20.
3. 200 μl PBS+2% Marvel, incubate 1 h at 37° C.
4. Rinse plate 2× in deionised water, then wash in 0.05% Tween-20.
5. 50 μl dGAE (˜10 μg/ml) plus drug in PBS+1% fish skin gelatin+0.05% Tween-20, incubate 1 h at 37° C.
6. Wash plate in 0.05% Tween-20.
7. 50 μl antibody 423 (1:10 dilution in PBS+2% Marvel), incubate 1 h at 37° C.
8. Rinse plate 2× in deionised water, then wash in 0.05% Tween-20.
9. 50 μl HRP-anti-mouse (1:1000 dilution in PBS+0.05% Tween-20), incubate 1 h at 37° C.
10. Wash plate in 0.05% Tween-20, then rinse 1× with deionised water.
11. 50 μl substrate solution, read immediately initial rate over 2 min in plate reader at OD650.
(Substrate solution: 50 mM sodium acetate, pH 5.0+TMB (1 ml/100 ml of a 10 mg/ml solution in DMSO)+H2O2 (10 μl/100 ml)).

[7] = target: T2, tau-tau binding; test: Relief of DMMB inhibition of tau-tau binding by ligands (Preparation 2); assay type: biochemical
Source text: 2. using tau proteins prepared in this manner for testing putative ligands in the tau-tau binding assay provided in WO96/30766 to identify substances which have minimal or entirely absent activity as tau-aggregation inhibitors or enhance tau-tau binding at high concentrations; 3. testing putative ligands in the presence of an exemplary potent tau-aggregation inhibitor, such as DMMB, at an inhibitory concentration; 4. putative ligands can be identified by the property that they lack capacity to block tau-tau binding through the repeat domain, but block the inhibitory activity of a potent tau-aggregation inhibitor.
(ii) contacting (a) a tau protein or a derivative thereof containing the tau core fragment bound to a solid phase so as to expose a high affinity tau capture site (e.g. a truncated tau protein corresponding to the core fragment and terminating at Ala390-dGA), with (b) a liquid phase tau protein or derivative thereof capable of binding to the solid phase tau protein or derivative (e.g. dGAE which terminates at Glu-391), and (c) said selected first agent and (d) a second agent known to be tau-tau binding inhibitor, (iii) selecting a first agent which fully or partially relieves the inhibition of binding of the liquid phase tau protein or derivative of (b) to the solid phase tau protein or derivative of (a) by the inhibitor (d).
Similar results are shown for 15 μM DMMB in the presence of increasing concentrations of Primulin (c) and Thiazin Red (d).
For each graph, Tau-Tau binding is shown in the presence of constant concentrations of DMMB co-incubated with Primulin at 0×, 1×, 5×, 10×, 100× the DMMB concentrations shown.
This implies that the Tau-aggregation enhancement effect of these ligands is proportional to the fraction of ligand-binding sites occupied, presumably within the Tau aggregates introduced into the aqueous-phase of the assay. The mean Bmax for both ligands is ˜1.6. That is, the maximum ligand effect is to produce 1.6-fold the Tau-Tau binding signal seen in the absence of any drug. The mean Kd for this effect is ˜15×. That is, for any given concentration of DMMB>4 μM, 50% of maximal enhancement of Tau-Tau binding can be seen when the ligand molar excess is 15-fold relative to the concentration of DMMB.

T2 sequence (P10636 614-708 limits assumed): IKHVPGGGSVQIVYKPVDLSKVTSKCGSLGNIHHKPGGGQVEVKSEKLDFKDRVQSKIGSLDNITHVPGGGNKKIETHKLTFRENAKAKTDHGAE
T1 sequence (P05067 672-711 limits assumed): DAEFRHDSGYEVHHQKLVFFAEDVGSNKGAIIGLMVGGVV

For CC(=C(C#N)C#N)c1ccc2cc(N(C)CC[18F])ccc2c1 [FDDNP, 2-(1-{6-[(2-[^18F]fluoroethyl)(methyl)amino]-2-naphthyl}ethylidene)malononitrile], the “relative retention time (RRT)” value [1] is listed as “increased relative retention time” and the “binding to synthetic beta-amyloid fibrils” value [2] is listed as “bind with high affinity”.

For CN(C)c1ccc2nc3ccc(=[N+](C)C)cc-3sc2c1 [methylene blue], the “disruption of PHF structure” value [3] was “disruption of PHF structure in the presence of sufficiently high concentrations”.

With Cc1ccc2sc(-c3ccc(N=Nc4cc(S(=O)(=O)[O-])c5ccccc5c4O)cc3)nc2c1S(=O)(=O)[O-].[Na+].[Na+] [thiazin red] the “competition with / displacement of other ligands at tangles” value [4] was “compete with primulin at equivalent concentrations”, the “inhibition of tau-tau binding” value [5] was “weak inhibitors of tau-tau binding” and the “inhibition of tau-tau binding” value [6] was “no inhibitory activity”. The “BMax of tau-tau binding” value ([7]; 5 μM DMMB, Binding=(BMax×[ligand])/(Kd+[ligand])) was 1.64 and the “reversal of inhibitory effect of DMMB on tau-tau binding” value ([7]; co-incubation with increasing molar excess of ligand) was “completely reversed”.
